Assay results from patent US9283247B2, “Chemically modified dendrimers” (Genzyme Corporation, priority 2007, dated 2016).

Columns and labels:
Format in all cases: cell-based
MMP-1 = MMP-1 ELISA on supernatants of chondrocytes stimulated with IL-1β; conditions: Homo sapiens, Chondrocyte; chondrocytes pretreated 2 hours, IL-1β 24 hours; protein (ELISA); N/A = did not affect MMP levels; read-out: IC50 constants for inhibition of MMP activity, MMP-1
Method: (§1) The effects of dendrimer compounds comprising n-acyl urea terminal moieties (i.e., dd-NAU) were evaluated for MMP activity in chondrocytes. […] In some instances, these effects were compared to dendrimer compounds comprising glucosamine terminal moieties (i.e., dd-Gln) and/or ethyl dimethylaminopropylurea (EDU). Chondrocytes were grown to confluency in 6-well plates (4 donors). The chondrocytes were pretreated with dendrimers (e.g., dd-NAU or dd-Gln) or EDU for 2 hours and then stimulated with IL-1β for 24 hours. Supernatants were collected and MMP-1, -3, and 13 ELISA assays were performed. The cells were collected for RNA analysis (3 donors).
(§2) Chondrocytes were grown to confluency in 6-well plates (2 donors). […] Supernatants were collected and MMP-1, -3, and 13 ELISA assays were performed. Neutral Red assays and Calcien AM assays were also performed on the chondrocytes to determine cell viability.

MMP-3 = MMP-3 ELISA on supernatants of chondrocytes stimulated with IL-1β; conditions: Homo sapiens, Chondrocyte; chondrocytes pretreated 2 hours, IL-1β 24 hours; protein (ELISA); N/A = did not affect MMP levels; read-out: IC50 constants for inhibition of MMP activity, MMP-3
Method: as §1, §2

MMP-13 = MMP-13 ELISA on supernatants of chondrocytes stimulated with IL-1β; conditions: Homo sapiens, Chondrocyte; chondrocytes pretreated 2 hours, IL-1β 24 hours; protein (ELISA); N/A = did not affect MMP levels; read-out: IC50 constants for inhibition of MMP activity, MMP-13
Method: as §1, §2

For `N[C@H]1C(O)O[C@H](CO)[C@@H](O)[C@@H]1O` (stereo partly drawn) [Glucosamine], the IC50 (MMP-1) was 1420 µM, the IC50 (MMP-3) was 600 µM and the IC50 (MMP-13) was 1400 µM.
